Tested on: 843782-103-R-J1-PDC complex spheroid viability
Experiment: Anticancer human tumor 843782-103-R-J1-PDC patient-derived lung adenocarcinoma cell line growth inhibition [RAS]
Settings: for IC50: curve of first compound; for viability, T/C: stronger effect = lower value
In short: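 Tumour cells grown as complex spheroids with HUVEC endothelial cells and mesenchymal stem cells, treated with RAS pathway inhibitor combinations. Each agent spans half-log steps from near clinical Cmax, or 10 microM where Cmax is unknown.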
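Note: viability read after seven days of compound exposure.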

In the case of CC1(C)CCC(Nc2ncc(C(F)(F)F)c(-c3c[nH]c4c(P(C)(C)=O)c(C#N)ccc34)n2)CN1 (centres undefined) + CCn1c(-c2cc(N3CCN(C)CC3)cnc2C(C)OC)c2c3cc(ccc31)-c1csc(n1)CC(NC(=O)C1CC1C)C(=O)N1CCCC(N1)C(=O)OCC(C)(C)C2, the IC50 (second compound 0.000949 µM) is reported as 5.42 nM, the IC50 (second compound 0.003 µM) is reported as 2.24 nM and the IC50 (second compound 0.00949 µM) is reported as < 0.949 nM. For the same compound, the IC50 (second compound 0.03 µM) was < 0.949 nM, the IC50 (second compound 0.0949 µM) was < 0.949 nM and the IC50 (second compound 0.3 µM) was < 0.949 nM. For the same compound, the viability, T/C (second compound 0.000949 µM, first compound 0.000949 µM) was 72.5%, the viability, T/C (second compound 0.000949 µM, first compound 0.003 µM) was 68.5% and the viability, T/C (second compound 0.000949 µM, first compound 0.00949 µM) was 32.6%. The viability, T/C (second compound 0.000949 µM, first compound 0.03 µM) was 14.2%, the viability, T/C (second compound 0.000949 µM, first compound 0.0949 µM) was 12% and the viability, T/C (second compound 0.000949 µM, first compound 0.3 µM) was 11.8%. It also gave a viability, T/C (second compound 0.003 µM, first compound 0.000949 µM) of 60.5%, a viability, T/C (second compound 0.003 µM, first compound 0.003 µM) of 46.6% and a viability, T/C (second compound 0.003 µM, first compound 0.00949 µM) of 22.8%. The viability, T/C (second compound 0.003 µM, first compound 0.03 µM) was 14.1%, the viability, T/C (second compound 0.003 µM, first compound 0.0949 µM) was 11.1% and the viability, T/C (second compound 0.003 µM, first compound 0.3 µM) was 11%. The viability, T/C (second compound 0.00949 µM, first compound 0.000949 µM) was 39.2%, the viability, T/C (second compound 0.00949 µM, first compound 0.003 µM) was 29.3% and the viability, T/C (second compound 0.00949 µM, first compound 0.00949 µM) was 18.7%. The viability, T/C (second compound 0.00949 µM, first compound 0.03 µM) was 10.5%, the viability, T/C (second compound 0.00949 µM, first compound 0.0949 µM) was 12.1% and the viability, T/C (second compound 0.00949 µM, first compound 0.3 µM) was 10.9%. The viability, T/C (second compound 0.03 µM, first compound 0.000949 µM) was 20.1%, the viability, T/C (second compound 0.03 µM, first compound 0.003 µM) was 21.7% and the viability, T/C (second compound 0.03 µM, first compound 0.00949 µM) was 14.5%. The viability, T/C (second compound 0.03 µM, first compound 0.03 µM) was 12.2%, the viability, T/C (second compound 0.03 µM, first compound 0.0949 µM) was 10.5% and the viability, T/C (second compound 0.03 µM, first compound 0.3 µM) was 9.54%. It also gave a viability, T/C (second compound 0.0949 µM, first compound 0.000949 µM) of 18.7%, a viability, T/C (second compound 0.0949 µM, first compound 0.003 µM) of 18.2% and a viability, T/C (second compound 0.0949 µM, first compound 0.00949 µM) of 14.1%. It also gave a viability, T/C (second compound 0.0949 µM, first compound 0.03 µM) of 12.2%, a viability, T/C (second compound 0.0949 µM, first compound 0.0949 µM) of 10.3% and a viability, T/C (second compound 0.0949 µM, first compound 0.3 µM) of 10.3%. The viability, T/C (second compound 0.3 µM, first compound 0.000949 µM) was 14.5%, the viability, T/C (second compound 0.3 µM, first compound 0.003 µM) was 14.3% and the viability, T/C (second compound 0.3 µM, first compound 0.00949 µM) was 11.9%. For the same compound, the viability, T/C (second compound 0.3 µM, first compound 0.03 µM) was 11.7%, the viability, T/C (second compound 0.3 µM, first compound 0.0949 µM) was 11.5% and the viability, T/C (second compound 0.3 µM, first compound 0.3 µM) was 10.1%.
With NC1c2ccccc2OC12CCN(c1cnc3c(N4CCCc5ncccc54)n[nH]c3n1)CC2 (centres undefined) the viability, T/C (compound 3.16 µM) was 51.5% [middle of 4 runs] and the viability, T/C (compound 10 µM) was 34.7% [middle of 4 runs].

From PubChem BioAssay AID2060883 (Molecular Pharmacology Branch, DTP, NCI, 2025)
